Where “and” joins values, the source holds several entries; their conditions need not be identical. Equal values may be shown once.
What was measured:
Assay type in all cases: cell-based, Staphylococcus aureus
S. aureus ATCC 25923 [1] = assay: Biofilm removal, MBEC Assay (ASTM E2799-12)
S. aureus ATCC 25923 [2] = assay: Biofilm prevention (inhibition), 96-well microplate assay
S. aureus ATCC 25923 [3] = assay: Minimum Inhibitory Concentration (MIC) on planktonic bacteria, CLSI M07-A9 modified for 96 well plates

With CCCCOP(=O)(OC)OCCCC [Dibutyl methyl phosphate] the “Biofilm Removal” value (S. aureus ATCC 25923 [1]) was 99.99%, the “MBEC Qualitative” value (S. aureus ATCC 25923 [1]) was over 2.3% and the “Biofilm Prevention” value (S. aureus ATCC 25923 [2]) was 99.99%. It also gave an MIC (S. aureus ATCC 25923 [3]) of 0.24%.
For CCCCOP(=O)(O)OCCCC [Dibutyl phosphate], the “Biofilm Removal” value (S. aureus ATCC 25923 [1]) was 99.99%, the “MBEC Qualitative” value (S. aureus ATCC 25923 [1]) was 0.24% and the “Biofilm Prevention” value (S. aureus ATCC 25923 [2]) was 99.99%. The MIC (S. aureus ATCC 25923 [3]) was 0.24% and 0.01%.

— US20230248000A1, “ANTIMICROBIAL COMPOUNDS AND METHODS OF USE” (Aequor, Inc., priority 2016, published 2023)
